Patent US10195156B2, “Compounds and compositions for intracellular delivery of agents” (ModernaTX, Inc., priority 2015, dated 2019)

Legend:
[1] = system: hEPO mRNA expression; assay: Expression of hEPO in CD-1 mice; format: in vivo; settings: Table 7e; hEPO expression, CD-1 mice, 0.5 mpk
From the text: FIG. 12 is a set of graphs illustrating hEPO expression levels in CD-1 mice dosed with compounds of the disclosure, compared to MC3. PBS is used as control. […] In graphs A-C numbers 1-14 refer to compositions containing the following: 1: Compound 73, 2: Compound 80, 3: Compound 70; 4: Compound 81; 5: Compound 69; 6: Compound 82; 7: Compound 83; 8: Compound 62; 9: Compound 84; 10: Compound 85; 11: Compound 86; 12: Compound 87; 13: MC3; 14: PBS.
FIG. 13 is a graph showing hEPO levels (pg/mL) in CD-1 mice up to ˜25 h after administration of a nanoparticle composition containing compounds of the disclosure, compared to a composition containing MC3. Numbers 1-13 refer to compositions containing the following: 1: Compound 73, 2: Compound 80, 3: Compound 70; 4: Compound 81; 5: Compound 69; 6: Compound 82; 7: Compound 83; 8: Compound 62; 9: Compound 84; 10: Compound 85; 11: Compound 86; 12: Compound 87; 13: MC3. […]

[2] = Encapsulation efficiency of RNA (QUANT-IT RIBOGREEN RNA assay); format: physicochemical
Summary of the method: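 RiboGreen fluorescence (ex ~480, em ~520 nm) measured after 15 min at 37 °C on samples at ~5 μg/mL in TE, pH 7.5, ± 2% Triton X-100 solution. After blank subtraction, free RNA is given as intact-sample signal divided by disrupted-sample signal.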

[3] = Particle size and polydispersity index of nanoparticle compositions (Zetasizer Nano ZS); format: physicochemical
Summary of the method: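 Measured in 1×PBS by Zetasizer Nano ZS.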

[4] = Lipid levels in liver and spleen 48 hours after administration; format: in vivo, rats; settings: rat liver, 48 h
Description: Formulations were administered intravenously to rats (n=3 or 6) at a dosage of 0.2 mg/kg or 0.5 mg/kg (mpk) and hEPO levels measured at 3, 6, and 24 hour time points. After the 48 hour time point, livers and spleens were harvested and frozen.
The amount of lipid in the liver and spleen 48 hours after administration of a nanoparticle composition was also measured. […] In contrast, approximately 60% of doses including MC3 or Compound 22 remained in the liver after 48 hours. Less than 3% of the dose remained in the spleen for each composition tested.

[5] = system: hEPO mRNA expression; assay: Expression of hEPO in rats after intravenous administration; format: in vivo; settings: hEPO expression in S.D. rats; for AUC/MC3 0.1 mpk / AUC/MC3 1 mpk: relative to MC3
Description: PBS (phosphate buffered saline) is used as control.
Formulations were prepared according to Table 5 and included mRNA encoding hEPO.
[…] After the 48 hour time point, livers and spleens were harvested and frozen.

[6] = pKa of nanoparticle compositions; format: physicochemical; settings: Table 1; rows without footnote mark
[7] = Lipid clearance: % dose remaining in mouse liver 6 h and 24 h after administration of nanoparticle compositions; format: in vivo, CD-1 mice
From the text: In contrast, hEPO expression in rats induced by administration of a nanoparticle composition including a compound according to one of formulae (I), (Ia1)-(Ia6), (Ib), (II), (IIa), (III), and (IIIa) was substantially […] than that measured for MC3. […] Table 7c and 7d show additional protein expressions and clearance data from compositions with various compounds disclosed herein as compared to with MC3.

[8] = system: modified luciferase expression; assay: Expression of Luc in different organs (liver, lung, spleen, femur) 6 hours after intravenous administration; format: in vivo; settings: Table 3, mice, i.v., 0.5 mpk
Description: The efficacy of the nanoparticle compositions presented in Tables 1, 1a, 17-1, 19-1, 20-1 and 21-1 was further evaluated by measuring the expression of modified luciferase in the liver, lung, spleen, and femur upon administration of a given composition. Formulations were administered intravenously to mice (n=3) at a dosage of 0.5 mpk and bioluminescence measured after 6 hours. The standard MC3 formulation and a PBS control were also tested.

[9] = system: luciferase (Luc) mRNA expression; assay: Expression of Luc induced by sample formulations, whole-body bioluminescence after intravenous administration; format: in vivo; settings: Table 2; mice, i.v., 0.5 mg/kg, 6 hours
Summary of the method: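 Read-out is whole-body bioluminescence at 3, 6 and 24 h after a single intravenous dose of 0.5 mg/kg Luc mRNA in nanoparticle formulations. Groups of n=6 mice; PBS and standard MC3 formulation as references.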

[10] = Table 1, rows without footnote mark
[11] = Table 1, rows without footnote mark (lipid:DOPE:cholesterol:PEG-DMG 40:20:38.5:1.5, Luc mRNA; MC3 standard formulation)

Row | EE (%) ([2]; Table 1b) | PDI ([3]; Table 1b) | Size (nm) ([3]; Table 1b) | Compound | AUC (p/s*h) CD-1 mice 0.5 mpk [1] [p/s*h] | further results
1 | 98.85 | 0.25 | 84.3 | CCCCCCCCCN(CCCCCCCCC)CCC1CCCN(C(=O)CN(CCCCCCCCC)CCN(CCCCCCCCC)CCCCCCCCC)C1 (stereo not drawn) [Compound 73, 2-((2-(Dinonylamino)ethyl)(nonyl)amino)-1-(3-(2-(dinonylamino)ethyl)piperidin-1-yl)ethan-1-one] | 1.41E+8 | –
2 | 99.23 | 0.24 | 76.1 | CCCCCCCCCN(CCCCCCCCC)CCN(CCCCCCCCC)CC(=O)N1CCC(CN(CCCCCCCCC)CCCC(=O)OCCCCC)C1 (stereo not drawn) [Compound 82, Pentyl 4-(((1-(N-(2-(dinonylamino)ethyl)-N-nonylglycyl)pyrrolidin-3-yl)methyl)(nonyl)amino)butanoate] | 1.29E+8 | –
3 | – | – | – | CCCCCCCCCN(CCCCCCCCC)CCC1CCN(C(=O)CN(CCCCCCCCC)CCN(CCCCCCCCC)CCCCCCCCC)CC1 [Compound 49, 2-((2-(Dinonylamino)ethyl)(nonyl)amino)-1-(4-(2-(dinonylamino)ethyl)piperidin-1-yl)ethan-1-one] | – | % dose remainng Rat liver (48 h) [4]: 38.45%; AUC (0.1 mpk) [5]: 5.98E+06; AUC/MC3 0.1 mpk [5]: 3.7; AUC (1 mpk) [5]: 1.44E+08; AUC/MC3 1 mpk [5]: 1.2; EE (%) [2, 10]: 98.8%; pKa [6]: 6.4; % Dose remaining 6 h CD-1 mice [7]: 49%; % Dose remaining 24 h CD-1 mice [7]: 40%; % dose remaining Mouse liver (24 h) [7]: 40.3%; Total Flux Liver [8]: 1.21E+10; Total Flux Spleen [8]: 6.65E+07; PDI [3, 10]: 0.200; Size (nm) [3, 11]: 95.8 nm; Total Flux 6 hours [9]: 5.67E+10
4 | 99.14 | 0.24 | 79.8 | CCCCCCCCCN(CCCCCCCCC)CCN(CCCCCCCCC)CC(=O)N1CCC(CN(CCCCCCCCC)CCCCCCCCC)C1 (stereo not drawn) [Compound 70, 2-((2-(Dinonylamino)ethyl)(nonyl)amino)-1-(3-((dinonylamino)methyl)pyrrolidin-1-yl)ethan-1-one] | 6.34E+7 | –
5 | – | – | – | CCCCCCCCCN(CCCCCCCCC)CCN(CCCCCCCCC)CC(=O)N1CCN(C(=O)CN(CCCCCCCCC)CCCC(=O)OCCCCC)CC1 [Compound 45, Pentyl 4-((2-(4-(N-(2-(dinonylamino)ethyl)-N-nonylglycyl)piperazin-1-yl)-2-oxoethyl)(nonyl)amino)butanoate] | – | % dose remainng Rat liver (48 h) [4]: 8.57%; AUC (0.1 mpk) [5]: 1.45E+06; AUC/MC3 0.1 mpk [5]: 0.90; AUC (1 mpk) [5]: 2.00E+08; AUC/MC3 1 mpk [5]: 1.7; EE (%) [2, 10]: 94.9%; pKa [6]: 6.77; % Dose remaining 6 h CD-1 mice [7]: 33%; % Dose remaining 24 h CD-1 mice [7]: 24%; % dose remaining Mouse liver (24 h) [7]: 23.7%; Total Flux Liver [8]: 7.87E+09; Total Flux Spleen [8]: 1.70E+08; PDI [3, 10]: 0.200; Size (nm) [3, 11]: 100.2 nm; Total Flux 6 hours [9]: 7.86E+10
6 | 97.73 | 0.18 | 61.7 | CCCCCCCCCN(CCCC(=O)OCCCCC)CCC(=O)N1CCN(C(=O)CCN(CCCCCCCCC)CCN(CCCCCCCCC)CCCCCCCCC)CC1 [Compound 62, Pentyl 4-((3-(4-(3-((2-(dinonylamino)ethyl)(nonyl)amino)propanoyl)piperazin-1-yl)-3-oxopropyl)(nonyl)amino)butanoate] | 3.46E+7 | –
7 | 99.18 | 0.24 | 69.9 | CCCCCCCCCN(CCCCCCCCC)CCCC1CCN(C(=O)CCN(CCCCCCCCC)CCN(CCCCCCCCC)CCCCCCCCC)CC1 [Compound 85, 3-((2-(Dinonylamino)ethyl)(nonyl)amino)-1-(4-(3-(dinonylamino)propyl)piperidin-1-yl)propan-1-one] | 1.27E+8 | –
8 | 98.93 | 0.2 | 65.8 | CCCCCCCCCN(CCCC(=O)OCCCCC)CCC1CCCN(C(=O)CN(CCCCCCCCC)CCN(CCCCCCCCC)CCCCCCCCC)C1 (stereo not drawn) [Compound 80, Pentyl 4-((2-(1-(N-(2-(dinonylamino)ethyl)-N-nonylglycyl)piperidin-3-yl)ethyl)(nonyl)amino)butanoate] | 6.24E+7 | –
9 | 98.67 | 0.21 | 80.9 | CCCCCCCCCN(CCCOC(=O)CCCCC)CCCC1CCN(C(=O)CCN(CCCCCCCCC)CCN(CCCCCCCCC)CCCCCCCCC)CC1 [Compound 87, 3-((3-(1-(3-((2-(Dinonylamino)ethyl)(nonyl)amino)propanoyl)piperidin-4-yl)propyl)(nonyl)amino)propyl Hexanoate] | 2.86E+7 | –
10 | 99.12 | 0.22 | 73.2 | CCCCCCCCCN(CCCC(=O)OCCCCC)CCC1CCN(C(=O)CN(CCCCCCCCC)CCN(CCCCCCCCC)CCCCCCCCC)CC1 [Compound 83, Pentyl 4-((2-(1-(N-(2-(dinonylamino)ethyl)-N-nonylglycyl)piperidin-4-yl)ethyl)(nonyl)amino)butanoate] | 5.21E+7 | –
11 | 99.27 | 0.17 | 65.3 | CCCCCCCCCN(CCCC(=O)OCCCCC)CCC1CCN(C(=O)CN(CCCCCCCCC)CCN(CCCCCCCCC)CCCCCCCCC)C1 (stereo not drawn) [Compound 81, Pentyl 4-((2-(1-(N-(2-(dinonylamino)ethyl)-N-nonylglycyl)pyrrolidin-3-yl)ethyl)(nonyl)amino)butanoate] | 1.08E+8 | –
12 | 98.48 | 0.19 | 68.6 | CCCCCCCCCN(CCCC(=O)OCCCCC)CCCC1CCN(C(=O)CCN(CCCCCCCCC)CCN(CCCCCCCCC)CCCCCCCCC)CC1 [Compound 84, Pentyl 4-((3-(1-(3-((2-(dinonylamino)ethyl)(nonyl)amino)propanoyl)piperidin-4-yl)propyl)(nonyl)amino)butanoate] | 5.10E+7 | –
13 | 99.31 | 0.24 | 74.4 | CCCCCCCCCN(CCCCCCCCC)CCC1CCN(C(=O)CN(CCCCCCCCC)CCN(CCCCCCCCC)CCCCCCCCC)C1 (stereo not drawn) [Compound 69, 2-((2-(Dinonylamino)ethyl)(nonyl)amino)-1-(3-(2-(dinonylamino)ethyl)pyrrolidin-1-yl)ethan-1-one] | 2.33E+8 | –
14 | 97.42 | 0.14 | 53.6 | CCCCCCCCCN(CCCOC(=O)CCCCC)CCC(=O)N1CCN(C(=O)CCN(CCCCCCCCC)CCN(CCCCCCCCC)CCCCCCCCC)CC1 [Compound 86, 3-((3-(4-(3-((2-(Dinonylamino)ethyl)(nonyl)amino)propanoyl)piperazin-1-yl)-3-oxopropyl)(nonyl)amino)propyl Hexanoate] | 1.75E+7 | –
